Measured values as given in PMC12040169 (PLOS Biology, 2025).

experiment: in vitro; settings: human, hela cells

With `N#CC(CCCN1CCC(O)(c2ccccc2)CC1)(c1ccccc1)c1ccccc1` [CBK002145] the viability at 28.5 h, 10 µM was 105%.

same assay, conditions: human, hela cells, % viability

Compared with `Nc1ncc(-c2ccsc2)nc1NCc1ccncc1` [CBK063614], `COc1ccc(Nc2ccc(-c3ccsc3)cn2)c(C)c1` [CBK036855] is higher in viability at 28.5 h, 10 µM: 107% for the first, 109% for the second.

Going from `Cc1ccc(C(=O)N2CCC[C@@H]3NC(=O)c4ccccc4OCC/C=C/C[C@@H]32)c(O)n1` [CBK292080] to `CN1C(=O)COc2ccccc2CCCC[C@@H]2[C@H]1CCCN2C(=O)CCCn1cccn1` [CBK292090], the viability at 28.5 h, 10 µM rises from 98.2% to 111%.

Compared with `O=C(Nc1cccc(NS(=O)(=O)c2ccc(Cl)cc2)c1)c1ccco1` [CBK265956], `CC(=O)Nc1ccc(S(=O)(=O)Nc2nc3ccccc3nc2Nc2ccc(C(=O)O)cc2)cc1` [CBK296079] is higher in viability at 28.5 h, 10 µM: 91.2% for the first, 125% for the second.

Going from `O=C(O)CN1CCC(Oc2nccnc2OCc2ccc(Cl)c(Cl)c2)CC1` [CBK144443] to `Cc1cccc(CN2CCC(NC(=O)Cn3cnnn3)CC2)c1` [CBK305649], the viability at 28.5 h, 10 µM falls from 97% to 95.9%.

First: O=C(OCn1nnc2ccccc2c1=O)c1cccc([N+](=O)[O-])c1 [CBK264887]
Second: CC(C)Cn1c(=O)c(C(=O)Nc2cccc(Cl)c2)c(O)c2ccccc21 [CBK159967]
The viability at 28.5 h, 10 µM of the first is higher: 104% for the first, 103% for the second.

Compared with `O=C1N[C@]2(Cc3ccccc31)CN(Cc1ccccc1)C[C@H]2CO` [CBK284743], `Cc1cc2ccccc2n2c(SCC(=O)NCCc3ccccc3)nnc12` [CBK265682] is higher in viability at 28.5 h, 10 µM: 92.1% for the first, 111% for the second.

Going from `COc1ccc(NC(=O)CSc2nc(C)c(Cc3ccc(O)cc3)[nH]2)cc1` [CBK291171] to `COc1ccc(CCN2C(=O)c3[nH]nc(-c4cc(C)c(C)cc4O)c3C2c2ccccc2)cc1` (stereo not drawn) [CBK269154], the viability at 28.5 h, 10 µM rises from 95.4% to 106%.

First: Cc1cc(NS(=O)(=O)c2c(C)nn(C)c2Cl)n(C)n1 [CBK067245]
Second: Cc1ccccc1-n1nc(C)c(CN(C)CC2CCN(C)C2)c1C (stereo not drawn) [CBK283035]
The viability at 28.5 h, 10 µM of the first is higher: 99.9% for the first, 82.6% for the second.

First: Cc1ccc2oc(C(=O)N3CCN(CC(=O)N(C)C)CC3)c(C)c2c1 [CBK281423]
Second: Cc1noc(C)c1C(=O)N1CCC(c2ccncc2)CC1 [CBK282334]
The viability at 28.5 h, 10 µM of the first is lower: 94.2% for the first, 110% for the second.

Going from `COc1cc(NC(=O)COc2cc(C)cc(C)c2)c(C(=O)O)cc1OC` [CBK268650] to `COc1cc(NS(=O)(=O)c2ccccc2)c(Cl)cc1C(=O)O` [CBK286564], the viability at 28.5 h, 10 µM rises from 93.8% to 98%.

Compared with `CC(=O)c1cccc(NC(=O)CCCn2cc([N+](=O)[O-])cn2)c1` [CBK268911], `O=C(NCCCNc1ccc([N+](=O)[O-])cc1)c1cccs1` [CBK066825] is higher in viability at 28.5 h, 10 µM: 82.8% for the first, 94.1% for the second.

First: Cc1cccnc1NC(=O)c1ccc(N2CCN(C)CC2)c([N+](=O)[O-])c1 [CBK269366]
Second: CC(=O)Nc1ccc(S(=O)(=O)N2CCN(c3cc4c(cc3[N+](=O)[O-])n(C)c(=O)n4C)CC2)cc1 [CBK267338]
The viability at 28.5 h, 10 µM of the first is higher: 95.4% for the first, 91.9% for the second.

Compared with `CC(=O)NC(c1ccccn1)C1CCCN(C(=O)C2CC2C)C1` (stereo not drawn) [CBK285032], `CC(C)NC(=O)[C@H]1CN2CCC1C[C@@H]2Cn1cc(-c2cccc(O)c2)nn1` (stereo partly drawn) [CBK288731] is higher in viability at 28.5 h, 10 µM: 84.2% for the first, 91.7% for the second.

Going from `CC1CCc2c(sc3ncnc(SCC(=O)N(C)C)c23)C1` (stereo not drawn) [CBK305946] to `Cc1ccn2ncc(C(=O)N3CCCCCC3c3ccco3)c2n1` (stereo not drawn) [CBK304015], the viability at 28.5 h, 10 µM rises from 92.9% to 111%.

Going from `O=C(COc1ccc2ccccc2c1Br)NCc1ccccn1` [CBK267361] to `COc1cc(/C=C/C(=O)NCc2ccccn2)cc(OC)c1OC` [CBK264752], the viability at 28.5 h, 10 µM rises from 84.1% to 91.5%.

Going from `CCN(CCO)c1ccc(Nc2nc(-c3cccc4ccccc34)cn3ccnc23)cc1` [CBK066243] to `Cc1ccc(N(CC(=O)N/N=C/c2ccccc2)S(=O)(=O)c2ccccc2)cc1` [CBK262090], the viability at 28.5 h, 10 µM rises from 87.9% to 88.3%.

Going from `Cc1cc(C23CC4CC(CC(C(=O)O)(C4)C2)C3)c(C)cc1C12CC3CC(CC(C(=O)O)(C3)C1)C2` [CBK261734] to `Cn1ccnc1C1(O)CC2CCC(C1)N2C(=O)C1CCCC1` (stereo not drawn) [CBK284052], the viability at 28.5 h, 10 µM falls from 112% to 86.4%.

Compared with `NS(=O)(=O)c1ccc(CCNC(=O)c2ccc([N+](=O)[O-])cc2)cc1` [CBK263773], `CC1CCN(S(=O)(=O)c2ccc(C(=O)NC(C(=O)O)C(C)O)cc2)CC1` (stereo not drawn) [CBK297151] is lower in viability at 28.5 h, 10 µM: 104% for the first, 99.1% for the second.

Compared with `Cc1nccn1CCCNC(=O)c1cccc(N2CCCCC2)c1` [CBK281646], `Cc1cc(C)nc(N2CCC(CC(=O)NCc3ccccc3N3CCCC3)CC2)n1` [CBK286071] is higher in viability at 28.5 h, 10 µM: 91.4% for the first, 95.5% for the second.

First: Cc1c(C)n(Cc2ccccc2)c2ccc(C(=O)OCCN3CCOCC3)cc12 [CBK262427]
Second: COc1ccccc1-c1cnc2[nH]c(=O)n(Cc3ccc(F)c(Cl)c3)c2n1 [CBK064662]
The viability at 28.5 h, 10 µM of the first is higher: 104% for the first, 103% for the second.

Compared with `Cn1ncc2c(NCCCN3CCCC(CO)C3)nc(C(C)(C)C)nc21` (stereo not drawn) [CBK307082], `c1ccc2c(c1)[nH]c1nc(SCCN3CCCCC3)nnc12` [CBK263249] is lower in viability at 28.5 h, 10 µM: 93% for the first, 88.7% for the second.

Compared with `Nc1ccc(Sc2nc3ccccc3nc2C(F)(F)F)cc1` [CBK089560], `COc1ccc(C(=O)c2c[nH]c3ccccc23)cc1` [CBK111451] is lower in viability at 28.5 h, 10 µM: 100% for the first, 88.9% for the second.

Compared with `CS(=O)(=O)N1CCCC(C(=O)Nc2nccs2)C1` (stereo not drawn) [CBK287834], `O=C(c1cccs1)N1CCC(c2n[nH]c3ncccc23)CC1` [CBK284904] is lower in viability at 28.5 h, 10 µM: 100% for the first, 92.3% for the second.

Going from `CCn1ncc(CN2C3CCC2CC(O)(c2cccc(F)c2)C3)c1C` (stereo not drawn) [CBK282754] to `CC(C)n1nccc1C(=O)NC1CCN(Cc2cccc(F)c2)CC1` [CBK282596], the viability at 28.5 h, 10 µM falls from 91.6% to 84.5%.

Going from `CC(NC(=O)c1ncoc1-c1ccccc1F)c1ccccn1` (stereo not drawn) [CBK282402] to `CC(C)C(NS(=O)(=O)c1ccccc1)C(=O)Nc1ccccc1` (stereo not drawn) [CBK270001], the viability at 28.5 h, 10 µM falls from 91.4% to 87.8%.

Compared with `Nc1c(C(=O)O)nnn1Cc1ccccc1` [CBK263796], `CCOC(=O)CN1CCC(Oc2cncc(OCC3COc4ccccc4O3)n2)C1` (stereo not drawn) [CBK084375] is lower in viability at 28.5 h, 10 µM: 95.6% for the first, 92.6% for the second.

Going from `CCC(CC)C(=O)Nc1ccc([C@@H](O)[C@H]2COCC(=O)N2CC)cc1` [CBK289684] to `CCc1nc2c(C(=O)NCCNC(C)=O)cnn2c(CC)c1Cc1ccc(Cl)cc1` [CBK165730], the viability at 28.5 h, 10 µM falls from 107% to 86%.

First: CSc1nnc(-c2ccc(Br)cc2)o1 [CBK026502]
Second: S=C(NCc1ccc(Cl)c(Cl)c1)Nc1ccncc1 [CBK016649]
The viability at 28.5 h, 10 µM of the first is higher: 91.9% for the first, 84.9% for the second.

Compared with `COc1cc(F)ccc1S(=O)(=O)NC1CC(C)(C)NC(C)(C)C1` [CBK266428], `COc1cc(S(=O)(=O)NC2CC(C)(C)NC(C)(C)C2)ccc1Br` [CBK267908] is lower in viability at 28.5 h, 10 µM: 112% for the first, 87.4% for the second.

Going from `Cc1ccc(C(=O)NC[C@H]2O[C@@H](CC(=O)N3CCCC3)[C@H](O)[C@@H]2O)cc1` [CBK288912] to `CCc1cccc2c(CN3CCc4nc(C)[nH]c(=O)c4C3)c[nH]c12` [CBK283931], the viability at 28.5 h, 10 µM falls from 98.9% to 94.6%.

same assay, conditions: human, hela cells, % viability, bulk resorufin, single well

First: CCOC(=O)C1(c2ccccc2)CCN(C(=O)CCN2CCN(C)CC2)CC1 [CBK132211]
Second: COc1ccc2c(c1)COC1(CCN(C(=O)N[C@@H](C)c3ccccc3)CC1)O2 [CBK060757]
The viability at 28.5 h, 10 µM of the first is lower: 86.2% for the first, 106% for the second.
